{"source": "patent US5608143A", "about": "“External regulation of gene expression” (E. I. Du Pont de Nemours and Company, priority 1994, dated 1997)", "key": {"[1]": {"system": "2-1 gene (In 2-1 mRNA)", "assay": "RNA slot blot / Northern analysis of 2-1 mRNA in roots of chemically treated corn", "format": "in vivo, corn (Missouri 17)", "parameters": "In2-1 induction level: key to the marks not given beside the values", "experimental": "Missouri 17 corn seeds were surface sterilized by soaking them in a solution of 10% commercial bleach and 0.1% sodium dodecylsulfate (SDS) for 30 minutes. Seeds were then rinsed thoroughly in a buchner funnel with sterile distilled water and prepared for germination by placing them onto 5-6 layers of moist sterile paper towels in a 8\"×10\" glass baking tray. The tray was covered with aluminum foil and placed in the dark in a 30° C. incubator for 48-72 hours to allow the seeds to germinate. After germination, seedlings were grown hydroponically in an apparatus consisting of a sheet of 8 mesh stainless steel wire gauze suspended over the top of a 2 liter glass beaker filled with sterile half strength Hoagland's solution (referred to 0.5× Hoagland's) so that the roots extended through the mesh and into the media. The hydroponic apparatus was aerated by introducing humidified air into the bottom of the beaker with a gas diffusing stone commonly used in tropical fish aquariums. The apparatus was covered with a loose-fitting sheet of aluminum foil and placed in a reach-in growth chamber illuminated by both fluorescent and incandescent lamps at an intensity of 4400 lux. Seedlings were grown at 28° C., 75% relative humidity using a 16 hour day/8 hour night cycle. After two days, the foil was removed and plants were grown for an additional 5-6 days. Any 0.5× Hoagland's lost to evaporation was replenished every 2-3 days. […] Plants were then allowed to grow for six additional hours prior to harvest.\nA nitrocellulose filter (Schlicher and Schull BA-85) was wetted by soaking it twice for 10 minutes in water, followed by a 10 minute soak in 1M ammonium acetate. The filter was then placed into a Slot Blot apparatus (Schleicher and Schuell, Inc., Keene, N.H. 03431, CAT #SRC072/0). […] Forty pl of denaturation buffer (30% formaldehyde, 100 mM sodium phosphate pH 6.8) were added to each sample and all samples were then incubated at 65° C. for 20-30 minutes and quick-cooled in an ice slurry for 5 minutes. Thirty μl of 4M ammonium acetate were added to each sample and the 150 μl samples were added to slots in the blotting cell with the aid of a 10-15 mm Hg vacuum. The filter was removed from the blotting cell, air dried and baked for 2 hours at 70° C. in vacuo.\nThe filter was cut into six pieces such that each piece had one slot cox.raining RNA from each of the three treatments described above. One of the filter pieces was incubated with 10 ml of prehybridization buffer (50% deienized formamide, 5× SSC, 5× Denhardt's, 100 μg/ml denatured calf thymus DNA, 20 μg/ml homopoly(A), 40 mM sodium phosphate pH 6.8 and 0.5% BSA) in a heat-sealable bag for 6 hours at 42° C. with occasional mixing. The filter piece was then hybridized with nick-translated pIn 2-1. This was performed by discarding the prehybridization solution from the bag and replacing it with 2.5 ml of hybridization buffer (50% deionized formamide, 5× SSC, 100 μg/ml denatured calf thymus DNA, 20 μg/ml homopoly(A) and 40 mM sodium phosphate, pH 6.8) containing 1.25×10^7 cpm of nick translated 2-1 plasmid described above. Nick-translated plasmid was denatured by boiling for 10 minutes followed by quick-cooling on ice. The filter was then hybridized overnight at 42° C. with occasional mixing."}, "[2]": {"system": "petunia P6.1 gene (P6 RNA)", "assay": "Northern / RNAse protection analysis of P6 RNA in roots of chemically treated petunia", "format": "in vivo, Petunia (Mitchell)", "excerpt": "Petunia (Mitchell) seeds were germinated in soil and allowed to grow for one month under standard greenhouse conditions. Plants were transferred to a hydroponic growth apparatus in a greenhouse using foam plugs to support the plants. These plugs were then placed in holes in a wooden bDard and placed over a stainless steel sink containing 0.5× Hoagland's solution. The solution was aerated using standard aquarium pumps, and was changed weekly. After one month of hydroponic growth, plants were transferred to stainless steel trays containing either fresh 0.5 × Hoagland's or 0.5× Hoagland's containing 0.2 g per liter of N-(aminocarbonyl)-2-chlorobenzenesulfonamide. Root tissue was harvested after six hours of treatment.\nTen μg (2 mg/ml) of total RNA from control and N-(aminocarbonyl)-2-chlorobenzenesulfonamide-treated roots was denatured by adding 10 μl of deionized formamide, 3.5 μl formaldehyde, 4 μl 5× MEN buffer (40 mM MOPS pH 7.0, 10 mM sodium acetate, 1 mM EDTA) and incubating at 65° C. for 15 minutes. […] RNA was stained in the presence of 10 mM sodium phosphate pH 6.8 and 1 μg/ml acridine orange for 30 minutes. The gel was then desrained in 10 mM sodium phosphate for 30 minutes, and the RNA was visualized on a UV transilluminator, photographed, and blotted to nitrocellulose (Millipore HAWP). To do this, Whatman 3MM paper was placed below the gel on a glass plate so that the ends of the paper extended into 20× SSC. A sheet of nitroccllulose which had been prewet with 2× SSC was placed on top of the gel followed by a layer of Whatman 3MM, then a stack of paper towels 10 cm high. A glass plate and weight were then placed on top of the stack. Following an overnight transfer, the filter was rinsed briefly in 2× SSC, air dried, and baked in vacuo for 2 hours at 80° C.\nThe filters were prehybridized for 5 hours in plastic dishes at 42° C. using the hybridization buffer described earlier. Plasmid p6.1 was nick-translated by combining 1 μg of DNA with 5 μl 10× buffer (0.5M Tris-HCl pH 8.0, 0.1M MgSO4, 10 mM DTT and 0.5 mg/ml BSA), 5 μl 0.3 uM d(AGT)TP, 5 μl ^32 P-dCTP (Amersham, 10 mCi/ml, 400 Ci/mmole), 1 μl DNA polymerase 1 (5 U/μl, Boehringer-Mannheim), and 1 μl of 0.1 μg/ml DNAse 1 in a total volume of 50 μl. […] The reaction was then incubated for 5 minutes at 70° C., and labelled DNA was separated from unincorporated nucleotides by Sephadex® G-50 column chromatography. The prehybridization solution was removed from the bag and replaced with hybridization solution containing nick-translated plasmid P6.1 DNA at a concentration of 1×10^6 cpm/ml. […] Filters were washed twice with 2× SSC, 0.1% SDS at 42° C. followed by two washes in 0.1× SSC, 0.1%SDS at 60° C. […]"}, "[3]": {"system": "2-2 promoter/HRA recombinant gene", "assay": "RNAse protection analysis of HRA (ALS) mRNA in leaves of tobacco transformed with 2-2 promoter/HRA gene", "format": "in vivo", "settings": "excised leaves, 200 mg/l in 0.5× Hoagland's, 16-24 hours", "experimental": "The expression of stable cytoplasmic mRNA transcribed from the wild type and transforming ALS genes in transformed plants were measured by RNAse protection analysis. In this manner, expression of the pDuPS22 construction was distinguished from the wild type ALS genes by virtue of the fact that the pDUPS22 transcript has a 2-2 untranslated leader that is divergent from the untranslated leader of the native ALS genes. […]\nRNAse protection assays were carried out using the protocol of Zinn et al. (Zinn et al. Cell (1983) 34, 865-879). […] The sizes of the labelled RNA fragments remaining after digestion with RNAse T1 and RNAse A were determined by electrophoresis using 6% denaturing polyacrylamide gels."}, "[4]": {"settings": "hydroponic 200 mg/l, sampled at 2, 4, 6 and 22 hours, roots"}}}
{"smiles": "NC(=O)NS(=O)(=O)c1ccccc1Cl", "values": [{"measurement": "hybridization of pIn 2-1 to root RNA (RNA slot blot)", "setting": "[1]; hydroponic 0.2 g/liter, six hours, corn roots", "result": "strongly hybridized"}, {"measurement": "In2-1 induction level", "setting": "[1]; hydroponic application, 100 ppm", "result": "+++++"}, {"measurement": "hybridization of pIn 2-1 to root poly(A)+ RNA (Northern blot)", "setting": "[1]; hydroponic treatment, corn roots", "result": "single intense hybridization signal"}, {"measurement": "hybridization of P6.1 probe to root RNA (Northern blot)", "setting": "[2]; hydroponic 0.2 g per liter, six hours, petunia roots", "result": "hybridized to an 800 bp message"}, {"measurement": "time at which P6 RNA reached maximum levels", "setting": "[2]; [4]", "result": "≤ 6", "unit": "h"}, {"measurement": "time at which P6 RNA was detectable", "setting": "[2]; [4]", "result": "≤ 2", "unit": "h"}, {"measurement": "RNAse protection of P6.1 probes by root RNA", "setting": "[2]; petunia roots, treated vs untreated plants", "result": "Protected fragments of 110 bp were observed in induced but not control RNA"}, {"measurement": "induction of HRA mRNA (RNAse protection)", "setting": "[3]", "result": "induction of high levels of stable cytoplasmic HRA mRNA"}]}
